Measurements taken from patent publication US11712055B2, “Stevia composition” (PURECIRCLE SDN. BHD., priority 2011, dated 2023).
Values belong to the compound of their own block, whether it stands above or below them.

How the values were obtained:
Water solubility = assay type: physicochemical; settings: in water at 25° C.
[1] = cited from earlier work; for times sweeter than sucrose (sensory evaluations): Crammer and Ikan 1986; for times sweeter than sucrose: Tanaka 1987, Phillips 1989
[2] = Kinghorn 2002; cited from earlier work
[3] = Chang and Cook 1983; cited from earlier work

- water solubility of obtained material (Water solubility): about 0.1 % (w/v)
Compound: C=C1CC23CCC4C(C)(C(=O)[O-])CCCC4(C)C2CCC1(OC1OC(CO)C(O)C(OC2OC(CO)C(O)C(O)C2O)C1OC1OC(CO)C(O)C(O)C1O)C3.[K+] (stereo not shown) [Example 5, reb B potassium salt]

Compound: Rebaudioside B [reb B]
- times sweeter than sucrose (sensory evaluations) [1]: 300-350 times
- water solubility (reported) [2]: about 0.1%

Compound: C=C1C[C@@]23CC[C@H]4[C@@](C)(CCC[C@@]4(C)C(=O)O[C@@H]4O[C@H](CO)[C@@H](O)[C@H](O)[C@H]4O)[C@@H]2CC[C@]1(O[C@@H]1O[C@H](CO)[C@@H](O)[C@H](O)[C@H]1O[C@@H]1O[C@H](CO)[C@@H](O)[C@H](O)[C@H]1O)C3 [stevioside]
- times sweeter than sucrose [1]: 110-270 times
- stability in carbonated beverages [3]: heat and pH stability

- water solubility of obtained material (Water solubility): about 0.1 % (w/v)
Compound: rebaudioside B [Example 3]

Compound: C=C1C[C@@]23CC[C@H]4[C@@](C)(CCC[C@@]4(C)C(=O)O[C@@H]4O[C@H](CO)[C@@H](O)[C@H](O)[C@H]4O)[C@@H]2CC[C@]1(O[C@@H]1O[C@H](CO)[C@@H](O)[C@H](O[C@@H]2O[C@H](CO)[C@@H](O)[C@H](O)[C@H]2O)[C@H]1O[C@@H]1O[C@H](CO)[C@@H](O)[C@H](O)[C@H]1O)C3 [Reb A, rebaudioside A]
- times sweeter than sucrose (sensory evaluations) [1]: 350-450 times
- stability in carbonated beverages [3]: heat and pH stability

Compound: rebaudioside C
- times sweeter than sucrose [1]: 40-60 times

Compound: C=C1C[C@@]23CC[C@H]4[C@@](C)(CCC[C@@]4(C)C(=O)O[C@@H]4O[C@H](CO)[C@@H](O)[C@H](O)[C@H]4O)[C@@H]2CC[C@]1(O[C@@H]1O[C@H](CO)[C@@H](O)[C@H](O)[C@H]1O[C@@H]1O[C@@H](C)[C@H](O)[C@@H](O)[C@H]1O)C3 [Dulcoside A]
- times sweeter than sucrose [1]: 30 times
